Laboratory results reported in US10399940B2, “Substituted pyrrolidines and methods of use” (AbbVie S.à.r.l., priority 2016, dated 2019).
Read-outs that look alike come from different tables or passages of the source.

Biological target: T1, F508delCFTR (Homo sapiens, UniProt P13569, DEL508-508)
T1 construct: expressed in transfected cells; host or cells: CFBE41o- (human lung derived epithelial cell line), doxycycline-inducible expression
Assay: Cell Surface Expression-Horse Radish Peroxidase (CSE-HRP) assay
Assay type: cell-based
Details: CFBE41o-F508delCFTR-HRP cells; for Maximum % activity (with co-corrector): with co-corrector (2 μM); for Maximum % activity (with co-corrector) / Maximum % activity (without co-corrector): normalized to on-plate positive control, highest concentration 20 μM
How it was run: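 Surface F508delCFTR-HRP was read by luminol luminescence after 18–24 h compound exposure at 33 °C, without or with 2 μM co-corrector. Doses were eight 3-fold steps from 20 μM, in doxycycline-induced (0.5 μg/mL, 72 h) CFBE41o- cells. % activity was scaled to the on-plate 2 μM positive control minus DMSO; EC50 came from a variable-slope sigmoid fit.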

[1] = test compound without co-corrector, 18-24 hours at 33° C., read-out: EC50 (without co-corrector)
[2] = with co-corrector (2 μM of 3-[(2R,4R)-4-({[1-(2,2-difluoro-1,3-benzodioxol-5-yl)cyclopropyl]carbonyl}amino)-7-methoxy-3,4-dihydro-2H-chromen-2-yl]benzoic acid), read-out: EC50 (with co-corrector)

T1 sequence (P13569 with tags, fused parts or gaps DEL508-508): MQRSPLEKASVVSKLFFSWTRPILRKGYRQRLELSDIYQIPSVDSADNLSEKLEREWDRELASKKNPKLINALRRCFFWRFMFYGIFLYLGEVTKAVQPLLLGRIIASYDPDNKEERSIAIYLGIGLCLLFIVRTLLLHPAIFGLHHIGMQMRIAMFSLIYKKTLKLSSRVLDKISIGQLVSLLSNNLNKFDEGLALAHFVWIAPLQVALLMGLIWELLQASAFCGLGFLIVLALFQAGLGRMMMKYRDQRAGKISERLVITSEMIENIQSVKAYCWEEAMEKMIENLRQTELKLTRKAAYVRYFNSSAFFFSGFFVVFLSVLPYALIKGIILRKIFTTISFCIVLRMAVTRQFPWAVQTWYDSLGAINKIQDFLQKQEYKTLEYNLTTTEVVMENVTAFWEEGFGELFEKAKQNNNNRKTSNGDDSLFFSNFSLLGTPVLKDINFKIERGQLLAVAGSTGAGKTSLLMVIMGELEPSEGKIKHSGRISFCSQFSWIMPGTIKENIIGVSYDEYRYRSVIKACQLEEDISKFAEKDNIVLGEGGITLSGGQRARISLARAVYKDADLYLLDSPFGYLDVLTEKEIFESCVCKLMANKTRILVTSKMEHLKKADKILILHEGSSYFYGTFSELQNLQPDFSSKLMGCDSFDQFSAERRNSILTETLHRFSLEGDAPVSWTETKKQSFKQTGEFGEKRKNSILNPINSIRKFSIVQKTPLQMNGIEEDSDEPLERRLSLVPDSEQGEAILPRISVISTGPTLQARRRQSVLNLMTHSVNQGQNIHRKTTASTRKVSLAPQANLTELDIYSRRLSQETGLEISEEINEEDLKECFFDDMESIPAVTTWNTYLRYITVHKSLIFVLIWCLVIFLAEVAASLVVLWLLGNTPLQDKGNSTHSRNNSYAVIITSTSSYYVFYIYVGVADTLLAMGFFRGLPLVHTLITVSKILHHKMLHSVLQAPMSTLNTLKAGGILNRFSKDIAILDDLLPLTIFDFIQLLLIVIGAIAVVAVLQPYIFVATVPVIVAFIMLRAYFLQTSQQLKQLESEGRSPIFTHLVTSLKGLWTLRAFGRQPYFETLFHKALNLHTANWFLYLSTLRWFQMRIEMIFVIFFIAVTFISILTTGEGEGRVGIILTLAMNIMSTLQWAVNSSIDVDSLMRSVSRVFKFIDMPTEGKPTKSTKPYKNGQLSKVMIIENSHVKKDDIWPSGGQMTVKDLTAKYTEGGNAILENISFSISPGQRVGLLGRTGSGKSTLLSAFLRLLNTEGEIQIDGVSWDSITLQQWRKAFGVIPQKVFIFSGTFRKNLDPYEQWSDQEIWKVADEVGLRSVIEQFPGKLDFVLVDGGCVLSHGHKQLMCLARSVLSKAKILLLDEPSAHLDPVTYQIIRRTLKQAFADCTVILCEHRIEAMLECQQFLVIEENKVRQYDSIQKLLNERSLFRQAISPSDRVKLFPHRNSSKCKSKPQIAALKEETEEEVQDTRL

| SMILES | EC50 [1] | EC50 [2] | Maximum % activity (with co-corrector) | Maximum % activity (without co-corrector) |
| --- | --- | --- | --- | --- |
| COc1ncc(C(C)(C)C)cc1CO[C@H]1[C@H](C(C)(C)C)[C@@H](C(=O)O)N(C(=O)OC(C)C)[C@H]1c1ccccc1 [Example 63, (2S,3R,4S,5S)-3-tert-butyl-4-[(5-tert-butyl-2-methoxypyridin-3-yl)methoxy]-5-phenyl-1-{[(propan-2-yl)oxy]carbonyl}pyrrolidine-2-carboxylic acid] | 1 to 10 µM | 1 to 10 µM | +++ (≥350) | ++ (≥100 and <200) |
| COc1ncc(C(F)(F)F)cc1CO[C@H]1[C@H](C(C)(C)C)[C@@H](C(=O)O)N(C(=O)OC(C)C)[C@H]1c1ccccc1 [Example 64, (2S,3R,4S,5S)-3-tert-butyl-4-{[2-methoxy-5-(trifluoromethyl)pyridin-3-yl]methoxy}-5-phenyl-1-{[(propan-2-yl)oxy]carbonyl}pyrrolidine-2-carboxylic acid] | 1 to 10 µM | 1 to 10 µM | +++ (≥350) | ++ (≥100 and <200) |
| COc1ncc(-c2ccc(C)cc2F)cc1CO[C@H]1[C@H](C(C)(C)C)[C@@H](C(=O)O)N(C(=O)OC(C)C)[C@H]1c1ccccc1 [Example 65, (2S,3R,4S,5S)-3-tert-butyl-4-{[5-(2-fluoro-4-methylphenyl)-2-methoxypyridin-3-yl]methoxy}-5-phenyl-1-{[(propan-2-yl)oxy]carbonyl}pyrrolidine-2-carboxylic acid] | < 1 µM | < 1 µM | +++ (≥350) | + (<100) |
| COc1ncc(-c2ccccc2F)cc1CO[C@H]1[C@H](C(C)(C)C)[C@@H](C(=O)O)N(C(=O)OC(C)C)[C@H]1c1ccccc1 [Example 66, (2S,3R,4S,5S)-3-tert-butyl-4-{[5-(2-fluorophenyl)-2-methoxypyridin-3-yl]methoxy}-5-phenyl-1-{[(propan-2-yl)oxy]carbonyl}pyrrolidine-2-carboxylic acid] | < 1 µM | 1 to 10 µM | +++ (≥350) | + (<100) |
| COc1ncc(-c2ccc(F)cc2C)cc1CO[C@H]1[C@H](C(C)(C)C)[C@@H](C(=O)O)N(C(=O)OC(C)C)[C@H]1c1ccccc1 [Example 67, (2S,3R,4S,5S)-3-tert-butyl-4-{[5-(4-fluoro-2-methylphenyl)-2-methoxypyridin-3-yl]methoxy}-5-phenyl-1-{[(propan-2-yl)oxy]carbonyl}pyrrolidine-2-carboxylic acid] | < 1 µM | < 1 µM | +++ (≥350) | + (<100) |
| COc1ncc(-c2ccc(F)cc2F)cc1CO[C@H]1[C@H](C(C)(C)C)[C@@H](C(=O)O)N(C(=O)OC(C)C)[C@H]1c1ccccc1 [Example 68, (2S,3R,4S,5S)-3-tert-butyl-4-{[5-(2,4-difluorophenyl)-2-methoxypyridin-3-yl]methoxy}-5-phenyl-1-{[(propan-2-yl)oxy]carbonyl}pyrrolidine-2-carboxylic acid] | < 1 µM | 1 to 10 µM | +++ (≥350) | + (<100) |
| COc1ncc(C2=CCOCC2)cc1CO[C@H]1[C@H](C(C)(C)C)[C@@H](C(=O)O)N(C(=O)OC(C)C)[C@H]1c1ccccc1 [Example 69, (2S,3R,4S,5S)-3-tert-butyl-4-{[5-(3,6-dihydro-2H-pyran-4-yl)-2-methoxypyridin-3-yl]methoxy}-5-phenyl-1-{[(propan-2-yl)oxy]carbonyl}pyrrolidine-2-carboxylic acid] | 1 to 10 µM | 1 to 10 µM | ++ (≥150 and <350) | + (<100) |
| COc1cccc(-c2cnc(OC)c(CO[C@H]3[C@H](C(C)(C)C)[C@@H](C(=O)O)N(C(=O)OC(C)C)[C@H]3c3ccccc3)c2)c1 [Example 70, (2S,3R,4S,5S)-3-tert-butyl-4-{[2-methoxy-5-(3-methoxyphenyl)pyridin-3-yl]methoxy}-5-phenyl-1-{[(propan-2-yl)oxy]carbonyl}pyrrolidine-2-carboxylic acid] | 1 to 10 µM | 1 to 10 µM | ++ (≥150 and <350) | + (<100) |
| COc1ncc(-c2ccc(C)cc2)cc1CO[C@H]1[C@H](C(C)(C)C)[C@@H](C(=O)O)N(C(=O)OC(C)C)[C@H]1c1ccccc1 [Example 71, (2S,3R,4S,5S)-3-tert-butyl-4-{[2-methoxy-5-(4-methylphenyl)pyridin-3-yl]methoxy}-5-phenyl-1-{[(propan-2-yl)oxy]carbonyl}pyrrolidine-2-carboxylic acid] | 1 to 10 µM | 1 to 10 µM | +++ (≥350) | + (<100) |
| COc1nc(C(C)(C)C)ccc1CO[C@H]1[C@H](C(C)(C)C)[C@@H](C(=O)O)N(C(=O)OC(C)C)[C@H]1c1ccccc1 [Example 72, (2S,3R,4S,5S)-3-tert-butyl-4-[(6-tert-butyl-2-methoxypyridin-3-yl)methoxy]-5-phenyl-1-{[(propan-2-yl)oxy]carbonyl}pyrrolidine-2-carboxylic acid] | 1 to 10 µM | 1 to 10 µM | +++ (≥350) | + (<100) |
| COc1ncc(C(F)(F)F)cc1CO[C@H]1[C@H](C(C)(C)C)[C@@H](C(=O)O)N(C(=O)OC(C)C)[C@H]1c1ccccc1F [Example 73, (2S,3R,4S,5S)-3-tert-butyl-5-(2-fluorophenyl)-4-{[2-methoxy-5-(trifluoromethyl)pyridin-3-yl]methoxy}-1-{[(propan-2-yl)oxy]carbonyl}pyrrolidine-2-carboxylic acid] | 1 to 10 µM | < 1 µM | +++ (≥350) | ++ (≥100 and <200) |
| COc1ncc(C(C)(C)C)cc1CO[C@H]1[C@H](C(C)(C)C)[C@@H](C(=O)O)N(C(=O)OC(C)C)[C@H]1c1ccccc1F [Example 74, (2S,3R,4S,5S)-3-tert-butyl-4-[(5-tert-butyl-2-methoxypyridin-3-yl)methoxy]-5-(2-fluorophenyl)-1-{[(propan-2-yl)oxy]carbonyl}pyrrolidine-2-carboxylic acid] | 1 to 10 µM | 1 to 10 µM | +++ (≥350) | ++ (≥100 and <200) |
| COc1ncc(C(C)(C)C)cc1CO[C@@H]1[C@H](C(C)(C)C)[C@@H](C(=O)O)N(C(=O)OC(C)C)[C@H]1c1ccccc1F [Example 75, (2S,3R,4R,5S)-3-tert-butyl-4-[(5-tert-butyl-2-methoxypyridin-3-yl)methoxy]-5-(2-fluorophenyl)-1-{[(propan-2-yl)oxy]carbonyl}pyrrolidine-2-carboxylic acid] | > 10 µM | > 10 µM | + (<150) | + (<100) |
| COc1ncc(Br)cc1CO[C@H]1[C@H](C(C)(C)C)[C@@H](C(=O)O)N(C(=O)OC(C)C)[C@H]1c1ccccc1F [Example 76, (2S,3R,4S,5S)-4-[(5-bromo-2-methoxypyridin-3-yl)methoxy]-3-tert-butyl-5-(2-fluorophenyl)-1-{[(propan-2-yl)oxy]carbonyl}pyrrolidine-2-carboxylic acid] | 1 to 10 µM | 1 to 10 µM | +++ (≥350) | ++ (≥100 and <200) |
| COc1ncc(C2CCC2)cc1CO[C@H]1[C@H](C(C)(C)C)[C@@H](C(=O)O)N(C(=O)OC(C)C)[C@H]1c1ccccc1F [Example 77, (2S,3R,4S,5S)-3-tert-butyl-4-[(5-cyclobutyl-2-methoxypyridin-3-yl)methoxy]-5-(2-fluorophenyl)-1-{[(propan-2-yl)oxy]carbonyl}pyrrolidine-2-carboxylic acid] | 1 to 10 µM | 1 to 10 µM | +++ (≥350) | ++ (≥100 and <200) |
| COc1ccc(C(F)(F)F)cc1CO[C@H]1[C@H](C(C)(C)C)[C@@H](C(=O)O)N(C(=O)OC(C)C)[C@H]1c1cccnc1OC(C)C [Example 78, (2S,3R,4S,5S)-3-tert-butyl-4-{[2-methoxy-5-(trifluoromethyl)phenyl]methoxy}-1-{[(propan-2-yl)oxy]carbonyl}-5-{2-[(propan-2-yl)oxy]pyridin-3-yl}pyrrolidine-2-carboxylic acid] | 1 to 10 µM | 1 to 10 µM | +++ (≥350) | ++ (≥100 and <200) |
| COc1ncc(C(F)(F)F)cc1CO[C@H]1[C@H](C(C)(C)C)[C@@H](C(=O)O)N(C(=O)OC(C)C)[C@H]1c1cccc(Cl)c1 [Example 79, (2S,3R,4S,5S)-3-tert-butyl-5-(3-chlorophenyl)-4-{[2-methoxy-5-(trifluoromethyl)pyridin-3-yl]methoxy}-1-{[(propan-2-yl)oxy]carbonyl}pyrrolidine-2-carboxylic acid] | 1 to 10 µM | 1 to 10 µM | ++ (≥150 and <350) | + (<100) |
